Assay results published in patent US8697081B2, “Method of modulating neovascularization” (The Regents of the University of Michigan, priority 2008, dated 2014).

Assays:
Type in all cases: cell-based
[1] = system: Human umbilical vein endothelial cells; assay: VEGF/HGF-triggered vasculogenesis in 3-D fibrin gel, or growth in 2-D culture; conditions: 3-D culture, VEGF/HGF-stimulated, blebbistatin or nocodazole
Excerpt: (§1) At sites of tissue damage, inflammation or neoplasia, fibrinogen is converted into a 3-D meshwork of fibrin fibrils that serve as a structural support for endothelial cells undergoing neovascularization (Chun et al. 2006. Cell, 125: 577-591; Hiraoka et al. 1998. Cell, 95: 365-377; Schafer and Werner. 2008. Nat. Rev. Mol. Cell Biol., 9: 628-638; Zhou et al. 2008. Genes Dev., 22: 1231-1243). This process can be recapitulated in vitro by embedding serum-supplemented human endothelial cells within a 3-D fibrin gel in the presence of the pro-angiogenic factors, VEGF and HGF. Human umbilical vein endothelial cells were isolated from umbilical cords by perfusion of the umbilical vein with type 3 collagenase (Worthington, Lakewood, N.J.) and cultured in Medium-199 (Invitrogen, Carlsbad, Calif.) with 20% human serum and 50 μg/ml endothelial cell growth supplement (ECGS; BD Biosciences, Franklin Lakes, N.J.). For 3-D culture, endothelial cells were suspended in a solution of thrombin and aprotinin (Sigma, St. Louis, Mo.) and mixed 1:1 with a solution of 6 mg/ml fibrinogen (Calbiochem, Gibbstown, N.J.). Vasculogenesis was triggered by treatment with 100 ng/ml VEGF, 50 ng/ml HGF (Genentech, San Francisco, Calif.). Fibronectin fibrillogenesis was tracked in 3-D by co-culture with human fibronectin (Sigma) labeled with Alexa-594 (Invitrogen).
In the presence of VEGF and HGF, endothelial cells i) underwent marked changes in cell morphology from spherical to elongated, ii) mobilized proteinases which degrade the surrounding fibrin, iii) assembled a pericellular meshwork of fibronectin fibrils, and iv) initiated proliferative and tubulogenic responses that result in the formation of an anastomosing network of neovessels over a 6 day culture period (Hiraoka, supra; Saunders et al., 2006. J Cell Biol. 175: 179-191; Zhou et al., 2008. Proc. Natl. Acad. Sci. USA, 97: 4052-4057). […] Cell, 125: 757-767; Saunders et al., supra; Tomasini-Johansson et al., 2001. J. Biol. Chem., 276: 23430-23439; Zhou et al, supra). Endothelial cells cultured atop—rather than embedded within—fibrin gels (herein referred to as 2-D culture) display distinct growth requirements from those observed in 3-D culture.
Taken together, cytoskeletal reorganization and contractile tension may serve as the biomechanical effectors that transmit structural and mechanical cues from the pericellular ECM to the nuclear envelope. VEGF/HGF-stimulated endothelial cells were treated with either (a) blebbistatin to inhibit myosin ATPase function, or (b) nocodazole to prevent microtubule assembly under 3-D culture conditions (Salpingidou et al., 2007. J. Cell Biol., 178: 897-904; Zhou et al., supra).

[2] = system: Human umbilical vein endothelial cells; assay: Nuclear architecture (GFP-lamin A, emerin) and nuclear pore complex (NUP153) distribution; conditions: 3-D culture, VEGF/HGF-stimulated, blebbistatin or nocodazole
Excerpt: as §1
As the 3-D-specific requirements for MT-MMPs and fibronectin matrix assembly correlate with changes in endothelial cell morphology, efforts were initiated to identify mechanistic routes whereby cell shape changes impact cell function. In particular, the impact of ECM remodeling on nuclear architecture was investigated. Nuclear architecture was tracked by either transfecting cells with a GFP-tagged form of the nuclear matrix filament, lamin A, or by immunostaining for the integral nuclear membrane protein, emerin (Dahl et al., 2008. Circ. Res., 102: 1307-1318; Glynn and Glover, 2005. Hum. Mol. Genet., 14: 2959-2969; Starr, 2009. J. Cell Sci., 122: 577-586; Stewart et al., 2007. Science, 318: 1408-1412). Under 2-D conditions, endothelial cell nuclei assumed an ellipsoid shape when cultured atop fibrin gels in the absence or presence of VEGF/HGF. In marked contrast, under 3-D conditions, endothelial cells cultured within fibrin gels in the absence of VEGF/HGF unexpectedly display a distorted morphology with multiple lamin A matrix and emerin infoldings and surface irregularities. Upon addition of VEGF/HGF, however, the nuclei of fibrin-embedded endothelial cells undergo a dramatic, and 3-D-specific, remodeling to assume a more classic, ovoid morphology. Three-dimensional reconstructions of DAPI-stained nuclei confirm that nuclear architecture transitions between multi-lobed and smooth elliptical shapes in the absence or presence, respectively, of VEGF/HGF.
Nuclear matrix architecture controls the distribution of the nuclear pore complexes that regulate the trafficking of protein and RNA across the nuclear envelope (Goldman et al., 2004. Proc. Natl. Acad. Sci. USA, 101: 8963-8968; Hawryluk-Gara et al., 2005. Mol. Biol. Cell, 16: 2382-2394; Liu et al., 2007. J. Cell. Biol., 178: 785-798). As such, the localization of nuclear pores was assessed in intact cells by monitoring the localization of the component protein, NUP153. In 3-D culture, unstimulated endothelial cells accumulate NUP153-containing pore complexes at nuclear membrane invaginations. In contrast, the nuclei of VEGF/HGF-stimulated endothelial cells display a uniform distribution of pore complexes in nuclear membranes.
To determine the roles of MMP-dependent proteolysis and fibronectin matrix assembly in mediating nuclear shape and nuclear pore complex changes, fibrin-embedded endothelial cells were stimulated with VEGF/HGF in the presence of FUD or GM6001. […]

[3] = system: Human umbilical vein endothelial cells; assay: Chromatin organization (GFP-H2B, H3K9me3) and histone H3/H4 acetylation; conditions: 3-D culture, VEGF/HGF-stimulated, blebbistatin or nocodazole
Excerpt: as §1
Yet, multi-lobed nuclei and anomalous nuclear pore complex distributions can be observed in laminopathies, a pleiotropic series of genetic disorders wherein mutations in lamin or emerin impact chromatin organization, histone modifications, and transcriptional activity (Csoka et al., 2004. Aging Cell, 3: 235-243; Dechat et al., 2008. Genes Dev, 22: 832-853; Dillon, 2008. Dev Cell, 15: 182-186; Malhas et al., 2007. J. Cell Biol., 176: 593-603; Mendjan et al., 2006. Mol. Cell, 21: 811-823; Shumaker et al., 2006. Proc. Natl. Acad. Sci. USA, 103: 8703-8708; Tang et al., 2008. J. Cell Sci., 121: 1014-1024). To determine whether VEGF/HGF-dependent changes in nuclear shape similarly affect chromatin structure/function, chromatin packaging was tracked at the single-endothelial cell level by monitoring GFP-tagged histone H2B or pericentromeric constitutive heterochromatin localization. […] heterochromatin localization was visualized by immunostaining for trimethylated lysine 9 of histone H3 (H3K9me3) (Shumaker, supra; Tang, supra).
Histone acetylation can be regulated by chromatin positioning within the nucleus (Finlan et al., 2008. PLoS Genet, 4: e1000039; Somech et al., 2005. J. Cell Sci., 118: 4017-4025). Thus, the acetylation status of histones H3 and H4 was assessed as functional markers of changes in chromatin organization. […]

[4] = system: Human umbilical vein endothelial cells; assay: Cytoskeletal organization (F-actin, β-tubulin, vimentin) and isometric tension/contractile force; conditions: 3-D culture, VEGF/HGF-stimulated, blebbistatin or nocodazole
human endothelial cells [5] = assay: Fn matrix assembly by endothelial cells in 3-D fibrin gel, confocal laser microscopy; conditions: growth factor cocktail, FUD or Del29 250 nM, L8 or 9D2 100 μg/ml, 70 kDa Fn fragment 75 μg/ml
Method: Endothelial cells were isolated from human umbilical cord veins by collagenase digestion and cultured in Medium 199 (Gibco) containing 20% human serum, 50 μg/ml endothelial cell growth supplement (BD Biosciences), 100 U/ml penicillin, and 100 μg/ml streptomycin (Hiraoka et al. 1998. Cell, 95(3): 365-377). For 2-D/3-D culture, endothelial cell monolayers (no later than third passage) were suspended by mild trypsinization and dispersed within or plated atop fibrin (3 mg/ml) or collagen (2.2 mg/ml) gels (prepared as described in Hiraoka, supra, and Hotary et al. 2003. Cell, 114(1): 33-45), and stimulated with a cocktail of growth factors including 100 ng/ml human vascular endothelial growth factor (Genentech), 50 ng/ml human hepatocyte growth factor (Genentech), 10 ng/ml human TGFα (Biosource), 0.5 ng/ml TGFβ1 (R and D Systems), and 100 μg/ml heparin (Sigma). In selected experiments, endothelial cell spheroids were prepared and suspended in 3-D fibrin gels.
The effect of Fn matrix assembly, or lack thereof, on endothelial cell function during neovascularization was assessed. Human serum was depleted of Fn by gelatin-sepharose affinity chromatography (Amersham) and supplemented with either 20 μg/ml of human plasma Fn (Sigma) or FITC-labeled Fn. […]
(Chernousov et al. 1991. J. Biol. Chem., 266(17): 10851-10858; Tomasini-Johansson et al. 2001. J. Biol. Chem., 276(26): 23430-23439; Mao and Schwarzbauer. 2005. Matrix Biol., 24(6): 389-399; and Tomasini-Johansson et al. 2006. Matrix Biol., 25(5): 282-293). […] Cell number in 3-D cultures was determined by hemacytometry after dissolving gels with 2 mg/ml bacterial collagenase (Worthington) while the number of patent tubules was determined in randomly selected cross-sections. Fn matrix assembly and cell morphology were monitored by confocal laser microscopy. To examine cell migration, endothelial cells were embedded in a 100 μl fibrin gel for 2 hours, then placed within a 500 μl gel for 8 days in the presence of Del29, FUD, control IgG, or L8, after which migration from the inner gel was assessed. […]

human endothelial cells [6] = assay: F-actin cytoskeletal organization, activated β1 integrin and vinculin distribution (phalloidin, confocal); conditions: 3-D fibrin gel, 2 days, FUD or Del29 peptide
Method: To further study the effects of Fn matrix inhibition, additional cytological processes associated with angiogenesis were examined. Endothelial cells were cultured within 3-D or 2-D fibrin gels in the presence of the FUD or Del 29 peptides for 2 days. F-actin cytoskeletal organization was monitored following staining with Alexa 488-conjugated phalloidin. Cells also were stained with an antibody against activated β1 integrin or transfected with a GFP-tagged vinculin expression vector (pRK-vinculin-EGFP) to study distribution. Following counterstaining with Alexa 594-labeled phalloidin, fluorescence was monitored by confocal laser microscopy.
In the absence of Fn fibrillogenesis, an impaired ability of embedded endothelial cells to generate myosin-dependent forces and increase cytoplasmic stiffness was predicted to affect both Fn unfolding, as well as the ability of the cells to properly register the mechanical properties of the surrounding substratum (Wu et al. 1995. Cell, 83(5): 715-724; Zhong et al. 1998. J. Cell Biol., 141(2): 539-551; Baneyx et al. 2002. Proc. Natl. Acad. Sci. USA, 99(8): 5139-5143; Discher et al. 2005. Science, 310(5751): 1139-1143; Engler, supra; and Yoneda, supra). As such, the rheologic and functional characteristics of endothelial cells were assessed in the presence of the specific myosin ATPase inhibitor, blebbistatin. […]

Row | Compound | endothelial cell 3-D tubulogenesis [1] | nuclear shape and nuclear pore distribution [2] | chromatin distribution [3] | levels of acetylated histones H3 and H4 [3] | contractile force exerted on the 3-D ECM [4] | Fn matrix assembly (Fn polymerization) (human endothelial cells [5]) | stress fiber formation (F-actin phalloidin staining) (human endothelial cells [6])
1 | COC(=O)Nc1nc2ccc(C(=O)c3cccs3)cc2[nH]1 [nocodazole] | completely inhibit | multi-lobed nuclei with perturbations in nuclear pore distribution | chromatin condensations at the nuclear periphery with increased interchromatin space | decreased levels | impairing |  | 
2 | Del29: control peptide wherein FUD residue 29 is deleted to abrogate Fn binding (KDQSPLAGESGETEYITEVYGNQQNPVDDKKLPNETGFSGNMVETEDT) |  |  |  |  |  | did not negatively impact | well-organized stress fibers
